# Patent US20240180872A1, “METHODS AND COMPOUNDS OF CANNABIDIOL, MELATONIN AND AKBA FOR TREATING PANCREATIC CANCER” (priority 2021, published 2024)
# Experiments:
# [1] = test system: U251 Glioblastoma cell line; test: Cytotoxicity assay (MTT, 72 hours, daily administration) in U251; assay type: cell-based; conditions: Homo sapiens, U-251, read-out: % VIABILITY ± S.D.
# Source text: (§1) The combinations were effective in other human tumor cell lines and we tested in glioblastoma cell line and endometrial cancer cell Additional tests include data obtained from two independent experiments, six wells for dose.
# [2] = test system: PCEM004a endometrial cancer cell line; test: Cytotoxicity assay (MTT, 72 hours, daily administration) in PCEM004a; assay type: cell-based; conditions: Homo sapiens, read-out: % VIABILITY ± S.D.
# Source text: as §1
# [3] = test system: pancreatic adenocarcinoma associated genes; test: TaqMan Array gene expression in PANC-1, normalized for GAPDH; conditions: 24 hs, CBD 3.8, MLT 200, AKBA 7.5 micrograms/ml
# Method: Total RNA from untreated or CBD, MLT, AKBA alone and in combination treated cell lines was extracted using Rneasy Mini kit (Qiagen, Milan, Italy). One microgram of total RNA from each sample was subjected to reverse transcription in a total volume of 20 μL using the High-Capacity cDNA Archive Kit (Applied Biosystem, Foster City, […], USA) according to the instructions. cDNAs were analyzed by qRT-PCR performed using an IQ5 Multicolor Real time PCR Detection system. Quantitative real-time gene expression was performed with the TaqMan® Array Human Pancreatic Adenocarcinoma 96-well Plate, containing 92 assays to pancreatic adenocarcinoma associated genes and 4 assays to candidate endogenous control genes, was purchased (Thermo Fisher, Grand Island, NY, USA) and used to evaluate the treatments in modulating PDAC-related genes (Table 1). Measurement of different housekeeping genes (GAPDH; HPRT1; GUSB) on the samples was used to normalize mRNA content. The gene expression levels of treated cell lines were expressed as relative fold compared with untreated or vehicle-treated cells.
# To elucidate the molecular events induced by CBD, MLT and AKBA alone and in combination, 92 genes involved in PDAC progression and aggressiveness were evaluated by Taqman Array. Both cell lines were treated with CBD, MLT and AKBA alone and in combination, and the molecular pathways of PDAC associated gene were evaluated.
# Target mRNA levels were normalized for GAPDH expression.
# PANC-1 cell line = test: Cytotoxicity assay (MTT, 72 hours, daily administration) in PANC-1; conditions: Homo sapiens, PANC-1, read-out: % VIABILITY ± S.D.
# Method: (§2) Human pancreatic ductal adenocarcinoma (PANC-1 and MIAPaCa-2) cell lines were purchased by Sigma Aldrich (Milan, Italy) and cultured in DMEM high glucose medium (EuroClone, Milan, Italy) supplemented with 10% of fetal bovine serum (FBS), 2 mM L-glutamine, 100 IU/mL penicillin, 100 mg streptomycin and 1 mM sodium pyruvate. Cell lines were maintained at 37° C. with 5% CO2 and 95% of humidity.
# (§3) 3×10^4 cells/mL were seeded in 96-well plates in a final volume of 100 L/well. After one day of incubation, compounds or vehicles, alone or in combination, were added and six replicates were used for each treatment and all experiments were repeated three times. In all the experiments, the treatment was daily added, after washing with fresh medium. After 72 hours cell viability was investigated by adding 0.8 mg/mL of 3-[4,5-dimethylthiazol-2-yl]-2,5 diphenyl tetrazolium bromide (MTT) (Sigma Aldrich) to the media. After 3 h the supernatant was removed, and the pellet of salt crystals was solubilized with 100 μL/well of DMSO. The absorbance of the sample against a background control was measured at 570 nm using an ELISA reader microliter plate (BioTek Instruments, Winooski, VT, USA).
# (§4) Cytotoxicity in PDAC cell lines: The effect of CBD, MLT and AKBA in reducing cell viability was evaluated at 72 hours, post daily administration, in PDAC cell lines. Cells were treated with different doses of CBD, MLT and AKBA (up to 1 mg) and percentage of cell viability was evaluated by the MTT assay. […] The compounds were administered daily for 72 hours, as in previous experiments at the desired doses. […] MTT assay was used to analyse the cell cytotoxicity.
# MIAPaCa-2 cell line = test: Cytotoxicity assay (MTT, 72 hours, daily administration) in MIAPaCa-2; conditions: Homo sapiens, MIA PaCa-2, read-out: % VIABILITY ± S.D.
# Method: as §2, §3, §4
smiles,measurement,setting,value
"COc1ccc2[nH]cc(CCNC(C)=O)c2c1 [MLT, N-[2-(5-methoxy-1H-indol-3-yl)ethyl]acetamide]",viability at 100 µg/mL,[1],100 ± 2.3%
same,viability at 200 µg/mL,[1],65.4 ± 4.4%
same,viability at 400 µg/mL,[1],58.2 ± 4.1%
same,viability at 800 µg/mL,[1],17 ± 1.1%
same,viability at 100 µg/mL,[2],96.5 ± 8.2%
same,viability at 200 µg/mL,[2],90.4 ± 6.2%
same,viability at 400 µg/mL,[2],80.1 ± 5.3%
same,viability at 800 µg/mL,[2],31.3 ± 2.8%
same,AKT3 mRNA relative expression,[3]; VEI 0.00,0.00
same,ARHGEF7 mRNA relative expression,[3]; VEI 0.00,0.017
same,BCL2 mRNA relative expression,[3]; VEI 0.00,0.00
same,CCND2 mRNA relative expression,[3]; VEI 0.00,0.00
same,CDKN2B mRNA relative expression,[3]; VEI 0.00,1.65
same,CYP2E1 mRNA relative expression,[3]; VEI 0.00,0.00
same,EGF mRNA relative expression,[3]; VEI 0.00,0.00
same,IGF1 mRNA relative expression,[3]; VEI 0.00,0.00
same,IL6 mRNA relative expression,[3]; VEI 0.00,0.00
same,KDR mRNA relative expression,[3]; VEI 0.00,0.00
same,KIT mRNA relative expression,[3]; VEI 0.00,0.01
same,MAPK3 mRNA relative expression,[3]; VEI 0.00,0.00
same,MMP1 mRNA relative expression,[3]; VEI 0.00,0.07
same,MMP3 mRNA relative expression,[3]; VEI 0.00,0.00
same,TGFA mRNA relative expression,[3]; VEI 0.00,0.22
same,TGFB2 mRNA relative expression,[3]; VEI 0.00,0.00
same,JAK2 mRNA relative expression,[3]; VEI 0.01,0.01
same,JAK3 mRNA relative expression,[3]; VEI 0.01,0.00
same,MMP7 mRNA relative expression,[3]; VEI 0.01,0.01
same,MMP9 mRNA relative expression,[3]; VEI 0.01,0.04
same,PK3CA mRNA relative expression,[3]; VEI 0.01,0.00
same,RAC2 mRNA relative expression,[3]; VEI 0.01,0.01
same,RB1 mRNA relative expression,[3]; VEI 0.01,0.03
same,TGFB3 mRNA relative expression,[3]; VEI 0.01,0.00
same,TGFBR1 mRNA relative expression,[3]; VEI 0.02,0.00
same,BRCA2 mRNA relative expression,[3]; VEI 0.03,0.34
same,CDKN2D mRNA relative expression,[3]; VEI 0.03,0.04
same,MDM2 mRNA relative expression,[3]; VEI 0.03,0.00
same,RHOB mRNA relative expression,[3]; VEI 0.03,0.03
same,CDKN2C mRNA relative expression,[3]; VEI 0.04,0.14
same,PK3R1 mRNA relative expression,[3]; VEI 0.04,0.02
same,PTGS2 mRNA relative expression,[3]; VEI 0.04,0.02
same,STATSB mRNA relative expression,[3]; VEI 0.04,0.45
same,MAPK1 mRNA relative expression,[3]; VEI 0.05,0.02
same,SMAD2 mRNA relative expression,[3]; VEI 0.05,0.19
same,CCND1 mRNA relative expression,[3]; VEI 0.06,0.10
same,MAP2K2 mRNA relative expression,[3]; VEI 0.06,0.08
same,PK3CD mRNA relative expression,[3]; VEI 0.06,0.06
same,TGFBR2 mRNA relative expression,[3]; VEI 0.06,0.00
same,VEGFA mRNA relative expression,[3]; VEI 0.06,0.03
same,VEGFB mRNA relative expression,[3]; VEI 0.06,0.05
same,CCNA2 mRNA relative expression,[3]; VEI 0.07,0.07
same,CCNE2 mRNA relative expression,[3]; VEI 0.07,0.07
same,EZF3 mRNA relative expression,[3]; VEI 0.07,0.08
same,SMAD4 mRNA relative expression,[3]; VEI 0.07,0.08
same,SOS1 mRNA relative expression,[3]; VEI 0.07,0.06
same,TGFB1 mRNA relative expression,[3]; VEI 0.07,0.05
same,MAP2K1 mRNA relative expression,[3]; VEI 0.08,0.03
same,MMP2 mRNA relative expression,[3]; VEI 0.08,0.00
same,VEGFC mRNA relative expression,[3]; VEI 0.08,0.00
same,CCNE1 mRNA relative expression,[3]; VEI 0.09,0.11
same,CDK2 mRNA relative expression,[3]; VEI 0.09,0.07
same,KRAS mRNA relative expression,[3]; VEI 0.09,0.01
same,RAC1 mRNA relative expression,[3]; VEI 0.09,0.00
same,REL mRNA relative expression,[3]; VEI 0.09,0.08
same,STAT2 mRNA relative expression,[3]; VEI 0.09,0.00
same,CDKN1B mRNA relative expression,[3]; VEI 0.10,0.09
same,CDKN2A mRNA relative expression,[3]; VEI 0.10,0.16
same,RELA mRNA relative expression,[3]; VEI 0.10,0.00
same,AKT1 mRNA relative expression,[3]; VEI 0.11,0.10
same,PK3CB mRNA relative expression,[3]; VEI 0.11,0.13
same,FIGF mRNA relative expression,[3]; VEI 0.14,0.11
same,TP53 mRNA relative expression,[3]; VEI 0.14,0.29
same,EZF4 mRNA relative expression,[3]; VEI 0.16,0.16
same,NFKB2 mRNA relative expression,[3]; VEI 0.16,0.02
same,EZF1 mRNA relative expression,[3]; VEI 0.17,0.14
same,SMAD3 mRNA relative expression,[3]; VEI 0.17,0.22
same,STAT1 mRNA relative expression,[3]; VEI 0.18,0.12
same,BRAF mRNA relative expression,[3]; VEI 0.22,0.13
same,BIRC5 mRNA relative expression,[3]; VEI 0.23,0.13
same,JAK1 mRNA relative expression,[3]; VEI 0.23,0.02
same,CDK4 mRNA relative expression,[3]; VEI 0.24,0.17
same,EGFR mRNA relative expression,[3]; VEI 0.24,0.16
same,RAF1 mRNA relative expression,[3]; VEI 0.25,0.06
same,CCNB1 mRNA relative expression,[3]; VEI 0.27,0.33
same,ERBB2 mRNA relative expression,[3]; VEI 0.27,0.04
same,SRC mRNA relative expression,[3]; VEI 0.27,0.03
same,GRB2 mRNA relative expression,[3]; VEI 0.31,0.23
same,BCL2L1 mRNA relative expression,[3]; VEI 0.35,0.21
same,HSP90AA1 mRNA relative expression,[3]; VEI 0.35,0.00
same,NFKB1 mRNA relative expression,[3]; VEI 0.35,0.09
same,RHOA mRNA relative expression,[3]; VEI 0.37,0.07
same,ELK1 mRNA relative expression,[3]; VEI 0.41,0.09
same,RELB mRNA relative expression,[3]; VEI 0.42,0.06
same,CDC42 mRNA relative expression,[3]; VEI 0.45,0.00
same,CDKN1A mRNA relative expression,[3]; VEI 0.49,0.07
same,AKT2 mRNA relative expression,[3]; VEI 0.50,0.46
same,HBEGF mRNA relative expression,[3]; VEI 0.53,0.39
same,NOTCH1 mRNA relative expression,[3]; VEI 1.03,0.32
same,STAT6 mRNA relative expression,[3]; VEI 1.38,0.01
same,STAT3 mRNA relative expression,[3]; VEI 4.45,0.07
same,viability at 100 µg/mL,PANC-1 cell line,100 ± 5.7%
same,viability at 200 µg/mL,PANC-1 cell line,97.4 ± 6.1%
same,viability at 400 µg/mL,PANC-1 cell line,83.9 ± 6.1%
same,viability at 800 µg/mL,PANC-1 cell line,19.2 ± 1.1%
same,viability at 100 µg/mL,MIAPaCa-2 cell line,100 ± 8.8%
same,viability at 200 µg/mL,MIAPaCa-2 cell line,87.8 ± 8.2%
same,viability at 400 µg/mL,MIAPaCa-2 cell line,78.2 ± 8.5%
same,viability at 800 µg/mL,MIAPaCa-2 cell line,12.5 ± 0.8%
